Data on 15 molecules can be found in patent publication US8987249B2, “Substituted 2-Aza-bicyclo[2.2.1]heptane-3-carboxylic acid (benzyl-cyano-methyl)-amides inhibitors of Cathepsin C” (Boehringer Ingelheim International GmbH, priority 2013, dated 2015).

Series [1] in a line: Determination of metabolic stability with human liver microsomes. The note with it: human, pooled human liver microsomes, pH 7.6. For orientation: Liver microsomes are a subcellular fraction often used to study metabolism.
In series [2] the target is recombinant human DPPI (Cathepsin C) (Homo sapiens (Human), UniProt P53634). Put plainly: Inhibition of human DPPI (Cathepsin C). The note with it: substrate Gly-Arg-AMC. In kind it is biochemical. Put shortly: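 Fluorescence read after 30 min room-temperature turnover of 50 μM (final) substrate by recombinant human cathepsin C, pH 6.0 MES/NaCl/DTT/BSA buffer, quenched by Gly-Phe-DMK (1 μM final). Activity as percent of vehicle after background subtraction, used for IC50.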
Chain of recombinant human DPPI (Cathepsin C) (P53634 231-394): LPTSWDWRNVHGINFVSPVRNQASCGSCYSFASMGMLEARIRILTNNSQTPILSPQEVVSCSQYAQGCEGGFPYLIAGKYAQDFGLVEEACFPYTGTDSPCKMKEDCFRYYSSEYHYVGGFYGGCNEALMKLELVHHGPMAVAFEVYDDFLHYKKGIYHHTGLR
Chain of recombinant human DPPI (Cathepsin C) (P53634 395-463): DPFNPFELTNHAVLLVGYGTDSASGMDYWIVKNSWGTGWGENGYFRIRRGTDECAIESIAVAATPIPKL
Chain of recombinant human DPPI (Cathepsin C) (P53634 25-134): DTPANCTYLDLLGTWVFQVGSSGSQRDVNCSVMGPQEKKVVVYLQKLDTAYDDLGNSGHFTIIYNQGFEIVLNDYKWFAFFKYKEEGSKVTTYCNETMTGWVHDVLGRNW

The target in series [3] is recombinant human Cathepsin K (Homo sapiens (Human), UniProt P43235). Put plainly: Inhibition of human Cathepsin K. In kind it is biochemical. The settings on record: substrate Z-Gly-Pro-Arg-AMC. Put shortly:
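Fluorogenic Z-Gly-Pro-Arg-AMC cleavage, 60 min at room temperature, after a 10 min enzyme–compound preincubation (enzyme 2 ng/μL; compound 0.1 nM–100 μM; 1% DMSO). Buffer pH 5.5 with sodium acetate, EDTA and L-cysteine; procathepsin first activated 30 min at pH 3.5. E64 (1 μM) stop; IC50 derived from percent of vehicle signal minus background (Ex 360/Em 460 nm).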

Chain of recombinant human Cathepsin K (P43235 115-329): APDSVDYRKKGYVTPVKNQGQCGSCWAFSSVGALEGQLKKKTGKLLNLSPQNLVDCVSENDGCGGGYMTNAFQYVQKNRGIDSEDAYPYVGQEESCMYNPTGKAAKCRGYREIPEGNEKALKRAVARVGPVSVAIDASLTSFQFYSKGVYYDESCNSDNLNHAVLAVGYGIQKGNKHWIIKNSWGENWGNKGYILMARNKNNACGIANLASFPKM

In general, half-life refers to the time in which the quantity being followed falls by half. As a reminder, the IC50 is the concentration that inhibits the measured activity by half. Consider `N#C[C@H](Cc1ccc(-c2ccc(C(F)(F)F)s2)cc1F)NC(=O)[C@H]1N[C@@H]2CC[C@H]1C2` [Example 33], for which the half-life at 1 μM in series [1] was > 130 min. Also, the IC50 was determined as 4.5 nM in series [2] and 4.8 µM in series [3].

As for `N#C[C@H](Cc1ccc(-c2csc(C(=O)N3CCOCC3)c2)cc1F)NC(=O)[C@H]1N[C@@H]2CC[C@H]1C2` [Example 230], the half-life at 1 μM in series [1] is > 130 min. The IC50 in series [2] was 1.8 nM; in series [3], 5.9 µM.

With `N#C[C@H](Cc1ccc(N2CCC(N3CCOCC3)CC2)cc1F)NC(=O)[C@H]1N[C@@H]2CC[C@H]1C2` [Example 193], the half-life at 1 μM in series [1] was > 130 min. The IC50 in series [2] worked out at 12.3 nM; in series [3], 2.2 µM.

With `CCNC(=O)c1coc(-c2ccc(C[C@@H](C#N)NC(=O)[C@H]3N[C@@H]4CC[C@H]3C4)c(F)c2)c1` [Example 242], in series [1], the half-life at 1 μM was > 130 min. Moreover, the results for the IC50 in series [2] and in series [3] were 10.9 nM and 2.5 µM, respectively.

Consider `N#C[C@H](Cc1ccc(-c2ccc3c(c2)CNC3=O)cc1F)NC(=O)[C@H]1N[C@H]2C[C@@H]1[C@@H]1C[C@@H]12` [Example 147], for which, in series [1], the half-life at 1 μM is > 130 min. The values for the IC50 in series [2] and in series [3] were 6.2 nM and 9.7 µM, respectively.

On to `CC1(C)OC(=O)c2ccc(-c3ccc(C[C@@H](C#N)NC(=O)[C@H]4N[C@@H]5CC[C@H]4C5)c(F)c3)cc21` [Example 156], for which the half-life at 1 μM in series [1] was determined as 95 min. The IC50 is 0.6 nM in series [2] and 7.8 µM in series [3].

With `CC(C)C(O)Cc1cn(-c2ccc(C[C@@H](C#N)NC(=O)[C@H]3N[C@@H]4CC[C@H]3C4)c(F)c2)nn1` (stereo partly drawn) [Example 109], the half-life at 1 μM in series [1] was > 130 min. The results for the half-inhibitory concentration (IC50) in series [2] and in series [3] were 26.9 nM and 4.5 µM, respectively.

In series [1], `N#C[C@H](Cc1ccc(-c2cc(-c3ccccc3)no2)cc1F)NC(=O)[C@H]1N[C@@H]2CC[C@H]1C2` [Example 96] returned a half-life at 1 μM of 82 min. The IC50 in series [2] was 19.8 nM; in series [3] it was 5.5 µM.

With `CN1CCN(c2ccc(C[C@@H](C#N)NC(=O)[C@H]3N[C@@H]4CC[C@H]3C4)c(F)c2)CC1` [Example 6, (1S,2S,4R)—N-[(1S)-1-cyano-2-[2-fluoro-4-(4-methylpiperazin-1-yl)phenyl]ethyl]-3-azabicyclo[2.2.1]heptane-2-carboxamide], in series [1], the half-life at 1 μM was > 130 min. Also, the IC50 in series [2] was found to be 10.7 nM; in series [3] it was 2.5 µM.

As for `CO[C@@H]1C[C@@H]2CN(c3ccc(C[C@@H](C#N)NC(=O)[C@H]4N[C@@H]5CC[C@H]4C5)c(F)c3)CCN2C1` [Example 269], the half-life at 1 μM in series [1] is > 130 min. The IC50 in series [2] was found to be 9.4 nM; in series [3] it was 1.7 µM.

With `CN1CCC2CN(c3ccc(C[C@@H](C#N)NC(=O)[C@H]4N[C@@H]5CC[C@H]4C5)c(F)c3)CC21` (stereo partly drawn) [Example 349], the half-life at 1 μM in series [1] is > 130 min. Also, the IC50 in series [2] amounted to 20.6 nM; in series [3], 5 µM.

For the molecule `N#C[C@H](Cc1ccc(-c2ccc(C(=O)N3CCOCC3)o2)cc1F)NC(=O)[C@H]1N[C@@H]2CC[C@H]1C2` [Example 288], in series [1], the half-life at 1 μM is > 130 min. Moreover, the IC50 in series [2] came to 2.3 nM; in series [3], 2.2 µM.

With `N#CC(Cc1cc2c(=O)[nH]c3ccc(F)cc3c2cc1F)NC(=O)[C@H]1N[C@@H]2CC[C@H]1C2` (stereo partly drawn) [Example 295], in series [1], the half-life at 1 μM is > 130 min. Also, the IC50 in series [2] is 2.1 nM; in series [3], 4.7 µM.

For `CN1CCN(C(=O)c2ccc(-c3ccc(C[C@@H](C#N)NC(=O)[C@H]4N[C@@H]5CC[C@H]4C5)c(F)c3)cc2)CC1` [Example 185], the half-life at 1 μM in series [1] was > 130 min. Further, the IC50 in series [2] was found to be 9 nM; in series [3] it was 1.7 µM.

Take `N#C[C@H](Cc1cc2c(=O)[nH]c3ccccc3c2cc1F)NC(=O)[C@H]1N[C@@H]2CC[C@H]1C2` [Example 322]: in series [1], the half-life at 1 μM was > 130 min. Moreover, the 50% inhibitory concentration (IC50) was found to be 0.8 nM in series [2] and 1.1 µM in series [3].
